Data taken from US8609173B2, “Compositions comprising sweetness enhancers and methods of making them” (Senomyx Inc., priority 2008, dated 2013).

Experiments:
[1] = Preparation of liquid solutions in food grade solvents (dissolution trials, Table 3); assay type: physicochemical; conditions: for solubility rate: propylene glycol
Protocol: Liquid compositions of 3-(4-amino-2,2-dioxide-1H-benzo[c][1,2,6]thiadiazin-5-yloxy)-2′,2′-dimethyl-N-propylpropanamide were prepared using a variety of different solvents (Table 3). It was discovered by increasing the pH of the solution with alkaline substance, such as alkali metal salt, one can increase the concentration level of 3-(4-amino-2,2-dioxide-1H-benzo[c][1,2,6]thiadiazin-5-yloxy)-2′,2′-dimethyl-N-propylpropanamide in solutions. Examples of suitable alkali metal salt include, but are not limited to, sodium bicarbonate, sodium carbonate, sodium hydroxide, and the like. In propylene glycol, sodium bicarbonate will raise pH from 7.8 to 8.5; the solubility rate of 3-(4-amino-2,2-dioxide-1H-benzo[c][1,2,6]thiadiazin-5-yloxy)-2′,2′-dimethyl-N-propylpropanamide will be increased from 0.5% to 1.0%.
• 1. Weigh a desired amount of compound and sodium bicarbonate. • 2. Calculate the volume of food grade solvent(s) (water, ethyl alcohol, isopropyl alcohol, butylenes glycol, propylene glycol, triacetin, glycerol, vegetable oils (soy, corn, peanut, persic, cottonseed, sesame), olive oil, fractionated coconut oil, neobee, tributyrin, mono and diglycerides, ethyl lactate, ethyl levulinate, butyl stearate, triethyl citrate, diethyl succinate, diethyl malonate, acetic acid, lactic acid, phosphoric acid, benzyl alcohol, tetrahydrofurfural alcohol, D-limonene, γ-valerolactone, butyrolactone, polyethylene glycol sorbitan monostearate (Tween®), etc. to add to the dry, weighed out compound to make a concentration of 1,000-50,000 ppm (0.1-5%). • 3. Pre heat the appropriate amount of solvent to 100 to 200° F. while stirring at 1,100 rpm on a hot plate using a stir bar. • 4. Add pre-weighed compound to heated solvent (when temperature reaches 100 to 200° F.). • 5. Continue heating solvent and inspect to insure complete dissolution, return to the hot plate if necessary. Preparation Procedure for Water as a Solvent:
Preparation Procedure of the Liquid Diluted Form (without Heat): • 1. Weigh desire amount of compound. • 2. Calculate the volume of food grade solvent(s) (water, ethanol, propylene glycol, triacetin, glycerol, neobee, DI water, phosphoric acid, lactic acid, olive oil) to add to the dry, weighed out compound to make a concentration of 1,000-50,000 ppm (0.1-5%). • 3. Stir solvent at 1,100 rpm on a hot plate using a stir bar. • 4. Add pre-weighed compound to solvent. • 5. Continue stirring and inspect to insure complete dissolution, return to the hot plate if necessary.

Panelists = assay: Paired comparison taste test, strawberry yogurt; assay type: in vivo, Human
Protocol: Two strawberry yogurt compositions were prepared and then mixed with plain, nonfat yogurt. One strawberry fruit composition was sweetened with a mixture of sucrose and fructose, and a second strawberry fruit composition was sweetened with ⅓ less sucrose and 3 ppm of 3-(4-amino-2,2-dioxide-1H-benzo[c][1,2,6]thiadiazin-5-yloxy)-2′,2′-dimethyl-N-propylpropanamide. The compositions of the two fruit compositions are as follows:
Panelists evaluated two yogurt compositions in a paired comparison taste test procedure and were instructed to select the sweeter of the two samples. They perform a total of three paired comparison tests each containing the following samples: Strawberry Yogurt with 100% Sucrose vs. Strawberry Yogurt with 66.6% Sucrose+3 ppm (8.47 μM) 3-(4-amino-2,2-dioxide-1H-benzo[c][1,2,6]thiadiazin-5-yloxy)-2′,2′-dimethyl-N-propylpropanamide.
Strawberry Yogurt Preparation: 1000 g batches of finished strawberry yogurt was made by adding 16% (by weight) strawberry fruit prep to 84% (by weight) plain nonfat yogurt and mixing with a wire whip until homogenous, a minimum of five minutes. The Compound A was dissolved into a 0.10% concentration level in propylene glycol and then added to the strawberry yogurt and mixed with a wire whip until homogenous, about 5 minutes.

Results (dissolution) ([1]; Ethanol, 1.0%, Ambient/over 30 minutes): Did not go into solution | Results (dissolution) ([1]; Glycerol, 0.1%, Ambient/over 30 minutes): Did not go into solution | Results (dissolution) ([1]; Lactic Acid, 1.0%, Ambient/over 30 minutes): Did not go into solution | Results (dissolution) ([1]; Neobee, 0.1%, 185° F./over 30 minutes): Did not go into solution | Results (dissolution) ([1]; Neobee, 0.1%, Ambient/over 30 minutes): Did not go into solution | Results (dissolution) ([1]; Olive Oil (Star Original), 0.1%, 150° F./over 30 minutes): Did not go into solution | Results (dissolution) ([1]; Olive Oil (Star Original), 0.1%, Ambient/over 30 minutes): Did not go into solution | Results (dissolution) ([1]; Phosphoric acid, 0.1%, Ambient/over 30 minutes): Did not go into solution | Results (dissolution) ([1]; Propylene Glycol, 0.3%, Ambient/over 30 minutes): Did not go into solution | Results (dissolution) ([1]; Propylene Glycol, 0.5%, Ambient/over 30 minutes): Did not go into solution | Results (dissolution) ([1]; Propylene Glycol, 1.0%, Ambient/over 30 minutes): Did not go into solution | Results (dissolution) ([1]; Triacetin, 0.1%, Ambient/over 30 minutes): Did not go into solution | concentration obtained ([1]; in ethanol): about 0.1 wt. % | concentration readily obtained ([1]; in propylene glycol): ≤ 0.5% | concentration obtained ([1]; in water): 10 ppm | solubility rate ([1]; pH 7.8, before sodium bicarbonate): 0.5% | solubility rate ([1]; sodium bicarbonate raises pH to 8.5): 1.0%
SMILES: CCCNC(=O)C(C)(C)COc1cccc2c1C(N)=NS(=O)(=O)N2 [3-(4-amino-2,2-dioxide-1H-benzo[c][1,2,6]thiadiazin-5-yloxy)-2′,2′-dimethyl-N-propylpropanamide]
Sample selected as sweeter by panelists, Total (Panelists; Strawberry Yogurt with 4.5% Sucrose + 3 ppm (8.47 μM) compound chosen, vs 6.7% Sucrose, n = 72): 33 | Sweetness comparison (conclusion) (Panelists; Strawberry Yogurt with 66.6% Sucrose + 3 ppm (8.47 μM) compound vs 100% Sucrose, p>0.10): not significantly different in sweetness
